# Data reported in patent US20160106102A1, “KNOWN AND NEW HETEROCYCLIC COMPOUNDS AS PEST CONTROL AGENTS” (BAYER CROPSCIENCE AKTIENGESELLSCHAFT, priority 2013, published 2016).
# Where two headings read alike, the source gives them in different places.
# Assays:
# Myzus persicae [1] = assay: Myzus persicae - spray test; format: in vivo; conditions: application rate of 500 g/ha, after 6 days, sprayed Chinese cabbage leaf discs infested by all stages, 100% = all aphids killed; for pest or weed control at 500 g/ha: Myzus persicae, foliar, 144 h, read-out: efficacy in %
# Outline: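 Chinese cabbage leaf discs infested with all stages of green peach aphid sprayed with compound in acetone/DMF formulation with alkylaryl polyglycol ether emulsifier, diluted in emulsifier-containing water. Efficacy (% aphids killed) assessed after 6 days.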
# Myzus persicae [2] = assay: Myzus persicae - sachet test; format: in vivo; conditions: 100% = all animals killed; for pest or weed control at 6 ppm / pest or weed control at 30 ppm: Myzus persicae, read-out: efficacy (kill in %)
# Outline: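 Active ingredient dissolved with 2% N-methylpyrrolidone and 2% diacetone alcohol, diluted in water, then pipetted into nutrient medium. Plate sealed and paired with a plate carrying green peach aphids. Kill in % scored after the set time (100% = all dead, 0% = none dead).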
# [3] = log P determination by LC-MS in the acidic range; format: physicochemical
# Text: The LC-MS determination in the acidic range is effected at pH 2.7 using 0.1% aqueous formic acid and acetonitrile (contains 0.1% formic acid) as eluents, linear gradient from 10% acetonitrile to 95% acetonitrile. Alternatively, the determination is effected in the acidic range at pH 2.3 using 0.1% aqueous phosphoric acid and acetonitrile as eluents; linear gradient from 10% acetonitrile to 95% acetonitrile.
# [4] = application rate of 6 ppm in nutrient medium
# [5] = application rate of 30 ppm in nutrient medium
# [6] = pH 2.7, LC-MS in the acidic range, read-out: log P (acid)
# [7] = pH 2.7, values given in the synthesis examples and NMR lists, read-out: HPLC-MS: log P
log P (acid) ([3]; LC-MS in the acidic range),"chromatographic logP [3, 6]","chromatographic logP [3, 7]","log P (acid) ([3]; Table 2, compounds of the formula (I-2), acidic range pH 2.7 or pH 2.3)",Structure (SMILES),efficacy in % (Myzus persicae [1]) [%],efficacy (kill in %) (Myzus persicae [2]; [4]) [%],efficacy (kill in %) (Myzus persicae [2]; [5]) [%],pest or weed control at 500 g/ha (Myzus persicae [1]) [%],pest or weed control at 6 ppm (Myzus persicae [2]; [4]) [%],pest or weed control at 30 ppm (Myzus persicae [2]; [5]) [%]
0.72,,,,Cc1c(F)c(NC(=O)c2cccnc2)nn1Cc1ncccn1 [Compound I-1-211],90,100,100,,,
1.91,,,,COCCN(CCOC)C(=O)n1nc(NC(=O)c2cccnc2)cc1C [Compound I-1-169],100,100,100,,,
1.56,,,,Cc1cc(NC(=O)c2cccnc2)nn1C(=O)NCC1COC(C)(C)O1 (stereo not drawn) [Compound I-1-164],90,100,100,,,
1.22,,,,COCCNC(=O)n1nc(NC(=O)c2cccnc2)cc1C [Compound I-1-163],100,100,100,,,
1.63,,,,Cc1cc(NC(=O)c2cccnc2)nn1C(C)C1CC1 (stereo not drawn) [Compound I-1-218],100,100,100,,,
1.46,,,,Cc1cc(NC(=O)c2cccnc2)nn1C(=O)NC(C)C [Compound I-1-287],90,100,100,,,
1.46,,,,O=C(Nc1cc(C(F)(F)F)n(Cc2ncccn2)n1)c1cccnc1 [Compound I-1-196],90,100,100,,,
2.02,,,,Cc1cc(NC(=O)c2cccnc2)nn1C1CCCCC1 [Compound I-1-204],90,80,80,,,
1.86,,,,Cc1cc(NC(=O)c2cccnc2)nn1Cn1ccc(C(F)(F)F)n1 [Compound I-1-228],90,100,100,,,
0.72,,,,COC(=O)C(C)(C)NC(=O)Cn1nc(NC(=O)c2cccnc2)cc1C [Compound I-1-32],90,100,100,,,
,0.3,0.3,,"Cc1cc(NC(=O)c2cccnc2)n[nH]1 [Compound I-1-17, N-(5-Methyl-1H-pyrazol-3-yl)nicotinamide]",,,,90,100,100
1.56,,,,CCC(=O)n1nc(NC(=O)c2cccnc2)cc1C [Compound I-1-129],90,100,100,,,
,1.02,1.02,,"Cc1cc(N(C)C(=O)c2cccnc2)nn1-c1ncccn1 [Compound I-1-25, N-Methyl-N-[5-methyl-1-(pyrimidin-2-yl)-1H-pyrazol-3-yl]nicotinamide]",,,,100,100,100
1.22,,,,CSCCn1nc(NC(=O)c2cccnc2)cc1C [Compound I-1-184],90,100,100,,,
0.98,,,,COC(=O)OCCn1nc(NC(=O)c2cccnc2)cc1C [Compound I-1-191],90,100,100,,,
1.88,,,,CCOC(CNC(=O)n1nc(NC(=O)c2cccnc2)cc1C)OCC [Compound I-1-170],90,100,100,,,
1.41,,,,C#CCn1nc(NC(=O)c2cccnc2)cc1C1CC1 [Compound I-1-43],90,100,100,,,
1.19,,,,Cc1cc(NC(=O)c2cccnc2)nn1C(F)F [Compound I-1-8],90,100,100,,,
,,,1.13,COc1ccc([N+](=O)[O-])cc1Cn1cnc(NC(=O)c2cccnc2)n1 [Compound I-2-4],90,,100,,,
0.83,,,,Cc1nnc(Cn2nc(NC(=O)c3cccnc3)cc2C)s1 [Compound I-1-296],90,100,100,,,
1.25,,,,Cc1cc(NC(=O)c2cccnc2)nn1CSc1ncccn1 [Compound I-1-234],90,100,100,,,

log P (acid) ([3]; LC-MS in the acidic range),"chromatographic logP [3, 6]","chromatographic logP [3, 7]","log P (acid) ([3]; Table 2, compounds of the formula (I-2), acidic range pH 2.7 or pH 2.3)",Structure (SMILES),efficacy in % (Myzus persicae [1]) [%],efficacy (kill in %) (Myzus persicae [2]; [4]) [%],efficacy (kill in %) (Myzus persicae [2]; [5]) [%],pest or weed control at 500 g/ha (Myzus persicae [1]) [%],pest or weed control at 6 ppm (Myzus persicae [2]; [4]) [%],pest or weed control at 30 ppm (Myzus persicae [2]; [5]) [%]
0.84,,,,O=C(Nc1ccn(C(CF)CF)n1)c1cccnc1 [Compound I-1-65],90,100,100,,,
0.29,,,,CNC(=O)Cn1nc(NC(=O)c2cccnc2)cc1C [Compound I-1-124],90,100,100,,,
1.84,,,,Cc1cc(NC(=O)c2cccnc2)nn1CC1CC1(Cl)Cl (stereo not drawn) [Compound I-1-237],90,100,100,,,
4.18,,,,Cc1cc(N(C(=O)c2ccc(Cl)cc2)C(=O)c2cccnc2)nn1C(=O)c1ccc(Cl)cc1 [Compound I-1-42],90,80,100,,,
1.32,,,,Cc1cc(NC(=O)c2cccnc2)nn1CC(F)(F)F [Compound I-1-133],90,100,100,,,
1.27,,,,Cc1cc(NC(=O)c2cccnc2)nn1-c1cnccn1 [Compound I-1-55],80,,100,,,
0.74,,,,Cc1cc(NC(=O)c2cccnc2)nn1Cn1c(C)nn(C)c1=O [Compound I-1-148],90,100,100,,,
1.06,,,,Cc1cc(NC(=O)c2cccnc2)nn1CC1CCCO1 (stereo not drawn) [Compound I-1-176],100,80,80,,,
1.5,,,,CCS(=O)(=O)N(C)C(=O)n1nc(NC(=O)c2cccnc2)cc1C [Compound I-1-289],90,100,100,,,
2.19,,,,Cc1cc(NC(=O)c2cccnc2)nn1C(=O)NCC(C)(C)C [Compound I-1-321],100,100,100,,,
1.23,,,,CCc1nn2c(=O)cc(Cn3nc(NC(=O)c4cccnc4)cc3C)nc2s1 [Compound I-1-352],90,,100,,,
,1.49,1.49,,"CCSCn1nc(NC(=O)c2cccnc2)cc1C [Compound I-1-242, N-{1-[(Ethylsulphanyl)methyl]-5-methyl-1H-pyrazol-3-yl}nicotinamide]",,,,100,100,100
1.82,,,,Cc1cc(NC(=O)c2cccnc2)nn1Cc1ccccc1F [Compound I-1-64],90,100,100,,,
0.62,,,,Cc1cc(NC(=O)c2cccnc2)nn1CN1CCCNC1=O [Compound I-1-149],90,100,100,,,
1.71,,,,Cc1cc(NC(=O)c2cccnc2)nn1Cc1noc(C(C)(C)C)n1 [Compound I-1-285],90,100,100,,,
0.7,,,,COCn1nc(N(C)C(=O)c2cccnc2)cc1C [Compound I-1-178],100,,80,,,
1.52,,,,Cc1cc(NC(=O)c2cccnc2)nn1S(=O)(=O)N(C)C [Compound I-1-231],90,100,100,,,
0.42,,,,O=C(Nc1ccn(Cc2ncccn2)n1)c1cccnc1 [Compound I-1-9],100,100,100,,,
1.79,,,,Cc1cc(NC(=O)c2cccnc2)nn1-c1ccc(F)cc1 [Compound I-1-203],90,80,100,,,
0.65,,,,Cc1cc(N(C)C(=O)c2cccnc2)nn1C [Compound I-1-16],90,,100,,,
